Results: EP0073390A1, “Combination of active substances from kitasamycine and quinoxaline-di-N oxides” (BAYER AG, priority 1981, dated 1983)

Key:
Ferkel [1] = assay: Feeding trial with piglets, Beispiel 1 (daily weight gain and feed conversion); format: in vivo
Source text: a) Tier-Charakteristik und Futter
• a1) Ferkel • a2) Anzahl 30 • a3) Zucht große weiße Landrasse Kreuzungszucht • a4) Geschlecht männlich • a5) Alter etwa 8 bis 14 Wochen • a6) Gewicht 17,5 bis 45 kg • a7) Zustand gut • a8) Futter [formula]
Ingredientien: • Weizen, Gerste, Hirse, Kleie, Fleischmehl, Sojabohnenmehl, Baumwollsamenmehl, Sonnenblumensamenmehl, Lysin, Salz, Kalkstein, 2RO, MnO, Kupfer- und Eisensulfat, Kaliumjodid, Vitamine A, D, E, K, B/2, Niazin, Pantothensäure.
Die Behandlung der Tiere wurde in 5 Behandlungsgruppen durchgeführt. Das Anfangsgewicht für jede Gruppe war gleich.
Die Ferkel wurden […] gewogen. Es wurde die tägliche Gewichtszunahme und Futterverwertung bestimmt. Wöchentliches Wiegen und individuelle Futteraufnahme wurden notiert.

Ferkel [2] = assay: Feeding trial with piglets, Beispiel 2 (weight gain, feed conversion, back fat thickness by ultrasound); format: in vivo
Source text: a) Tiercharakteristik und Futter
Die Ferkel wurden zu Versuchbeginn und in wöchentlichen oder vierzehntägigen Abständen bis zum Versuchsende gewogen.
Futtermenge und Mortalität wurden täglich notiert.
Die Rückenfettstärke wurde per Ultraschall am Versuchsende gemessen und auf 75 kg Lebendgewicht korrigiert.

Compound: Cc1c(C(=O)NCCO)[n+]([O-])c2ccccc2[n+]1[O-] [d1)]
- Durchschnittliche tägliche Gewichtszunahme (Ferkel [1]; Beispiel 1, Ferkel, male, about 8 to 14 weeks, 17,5 bis 45 kg, Konzentration (ppm): d1) 50, d2) 50, d3) 25:25, d4) 12,5:12,5, Kontrolle 537): 593 g/Tag
- Durchschnittliches Futterverwertungsverhältnis (Ferkel [1]; Beispiel 1; Ferkel; groups e1)-e4) correspond to d1)-d4); concentration column printed empty; e5) (presumably control) 2,72): 2,52 g/g
- Futterverwertung (Ferkel [2]; 40 kg bis 75 kg): 3,10 g/g
- Gewichtszunahme (Ferkel [2]; 40 kg bis Ende): 641 g/Tag
- Futterverwertung (Ferkel [2]; Beginn bis 40 kg): 2,30 g/g
- Gewichtszunahme (Ferkel [2]; Beginn bis 40 kg): 499 g/Tag
- Futterverwertung (Ferkel [2]; Beginn bis Ende): 2,74 g/g
- Gewichtszunahme (Ferkel [2]; Beginn bis Ende): 573 g/Tag
